According to patent publication US10323026B2, “Heterocyclic compound” (Takeda Pharmaceutical Company Limited, priority 2016, dated 2019):

Molecular target: T1, His-hMAGL (recombinant polyhistidine tagged human MAGL protein) (Homo sapiens, UniProt Q99685)
T1 construct: polyhistidine (His) (N); made in house; host or cells: E. coli BL21(DE3)
T1 sequence (Q99685 1-303): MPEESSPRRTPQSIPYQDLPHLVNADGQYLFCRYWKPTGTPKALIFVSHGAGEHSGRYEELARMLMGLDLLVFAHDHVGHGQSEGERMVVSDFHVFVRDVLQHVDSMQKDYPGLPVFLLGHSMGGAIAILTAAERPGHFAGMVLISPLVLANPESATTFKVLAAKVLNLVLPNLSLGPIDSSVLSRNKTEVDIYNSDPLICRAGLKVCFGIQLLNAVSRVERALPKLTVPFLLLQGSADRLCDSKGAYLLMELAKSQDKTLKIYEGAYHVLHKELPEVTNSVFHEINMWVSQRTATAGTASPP
Test: Measurement of MAGL inhibitory activity (RapidFire-mass spectrometry of arachidonic acid produced from 2-arachidonylglycerol)
Format: biochemical
Settings: test compound 10 μM, His-hMAGL, substrate 2-arachidonylglycerol, 60 min preincubation; for inhibition at 10 µM: read-out: % inhibition (10 μM)
Method: Furthermore, acetonitrile (50 μL) containing 3 μM arachidonic acid-d8 (Cayman Chemical Company) was added and the mixture was stirred.
The amount of arachidonic acid in the obtained enzyme reaction mixture was calculated by measuring by RapidFire-mass spectrometry and correcting by the amount of arachidonic acid-d8. High Throughput online solid phase extraction was performed using RapidFire 300™ system (Agilent Technologies, Inc.). Samples were loaded on SPE C4 cartridge (Agilent Technologies, Inc.) and desalted with 0.2 (v/v) % acetic acid (Wako Pure Chemical Industries, Ltd.) in ultrapure water/acetonitrile (70/30, v/v) at a flow rate of 1.5 mL/min, eluted at a flow rate of 0.5 mL/min with 0.2(v/v) % acetic acid dissolved in acetonitrile/ultrapure water (90/10, v/v), and injected into the mass spectrometry part. The injection needle was washed with ultrapure water (500 millisecond) and acetonitrile (500 millisecond) to minimize carry-over. […] The RapidFire300 system was controlled by RapidFire UI software version 3.6 (Agilent Technologies, Inc.).
The mass spectrometry of the resultant product was performed using API4000™ triple quadrupole mass spectrometer (AB SCIEX) equipped with an electrospray ion source (TurboIon Spray™) in a negative selected reaction monitoring (SRM) mode. The conditions of SRM are shown below. The parameters of the instrument were optimized as follows: capillary temperature 600° C., ion spray voltage −4.5 kV, collision gas 8, curtain gas 15 psi, ion source gas 1 60 psi, ion source gas 2 60 psi. The mass spectrometer was controlled by Analyst™ software version 1.5.1 (AB SCIEX). The peak area integration was analyzed using RapidFire integrator software version 3.6 (Agilent Technologies, Inc.).
MAGL inhibitory rate (%) was calculated according to the following calculation formula. (1-(arachidonic acid production amount of test compound addition group−arachidonic acid production amount of enzyme-free group)÷(arachidonic acid production amount of test compound-free group−arachidonic acid production amount of enzyme-free group))×100

Structure (SMILES)	inhibition at 10 µM	% inhibition (10 μM)
O=C1N[C@]2(CO1)C[C@H](C(=O)N1CC(COc3cc(Br)c(C(F)(F)F)cc3F)C1)C2 [Example 41, (2s,4s)-2-((3-((5-bromo-2-fluoro-4-(trifluoromethyl)phenoxy)methyl)azetidin-1-yl)carbonyl)-7-oxa-5-azaspiro[3.4]octan-6-one]	101%	
CC(Oc1cc(F)c(F)cc1F)C1CCN(C(=O)[C@H]2C[C@]3(COC(=O)N3)C2)CC1 (some centres unmarked) [Example 55, (2s,4s)-2-((4-(1-(2,4,5-trifluorophenoxy)ethyl)piperidin-1-yl)carbonyl)-7-oxa-5-azaspiro[3.4]octan-6-one]		100%
O=C1N[C@]2(CO1)C[C@H](C(=O)N1CC(OCc3ccc(OC(F)(F)F)c(Cl)c3)C1)C2 [Example 116, (2s,4s)-2-((3-((3-chloro-4-(trifluoromethoxy)benzyl)oxy)azetidin-1-yl)carbonyl)-7-oxa-5-azaspiro[3.4]octan-6-one]	100%	
CC(Oc1ccc(F)c(F)c1F)C1CCN(C(=O)[C@H]2C[C@]3(COC(=O)N3)C2)CC1 (some centres unmarked) [Example 82, (2s,4s)-2-((4-(1-(2,3,4-trifluorophenoxy)ethyl)piperidin-1-yl)carbonyl)-7-oxa-5-azaspiro[3.4]octan-6-one]		100%
CC(Oc1c(F)ccc(F)c1F)C1CCN(C(=O)[C@H]2C[C@]3(COC(=O)N3)C2)CC1 (some centres unmarked) [Example 57, (2s,4s)-2-((4-(1-(2,3,6-trifluorophenoxy)ethyl)piperidin-1-yl)carbonyl)-7-oxa-5-azaspiro[3.4]octan-6-one]		100%
CC1(C2CCN(C(=O)[C@H]3C[C@]4(COC(=O)N4)C3)CC2)Cc2ccc(C(F)(F)F)cc2O1 (some centres unmarked) [Example 70, (2s,4s)-2-((4-(2-methyl-6-(trifluoromethyl)-2,3-dihydro-1-benzofuran-2-yl)piperidin-1-yl)carbonyl)-7-oxa-5-azaspiro[3.4]octan-6-one]		101%
N#Cc1ccc(OCC2CCN(C(=O)[C@H]3C[C@]4(COC(=O)N4)C3)CC2)c(Cl)c1 [Example 130, 3-chloro-4-((1-(((2s,4s)-6-oxo-7-oxa-5-azaspiro[3.4]oct-2-yl)carbonyl)piperidin-4-yl)methoxy)benzonitile]	100%	
CC(Oc1ccc(F)cc1F)C1CCN(C(=O)[C@H]2C[C@]3(COC(=O)N3)C2)CC1 (some centres unmarked) [Example 21, (2s,4s)-2-((4-(1-(2,4-difluorophenoxy)ethyl)piperidin-1-yl)carbonyl)-7-oxa-5-azaspiro[3.4]octan-6-one]		100%
O=C1N[C@]2(CO1)C[C@H](C(=O)N1CC(COc3ccc(C(F)(F)F)cc3Cl)C1)C2 [Example 76, (2s,4s)-2-((3-((2-chloro-4-(trifluoromethyl)phenoxy)methyl)azetidin-1-yl)carbonyl)-7-oxa-5-azaspiro[3.4]octan-6-one]	100%	
O=C1N[C@]2(CO1)C[C@H](C(=O)N1CCC(C3(C(F)(F)F)Cc4cc(F)ccc4O3)CC1)C2 (some centres unmarked) [Example 58, (2s,4s)-2-((4-(5-fluoro-2-(trifluoromethyl)-2,3-dihydro-1-benzofuran-2-yl)piperidin-1-yl)carbonyl)-7-oxa-5-azaspiro[3.4]octan-6-one]	100%	
O=C1N[C@]2(CO1)C[C@H](C(=O)N1CC(COc3c(Cl)cc(F)cc3Cl)C1)C2 [Example 75, (2s,4s)-2-((3-((2,6-dichloro-4-fluorophenoxy)methyl)azetidin-1-yl)carbonyl)-7-oxa-5-azaspiro[3.4]octan-6-one]	100%	
O=C1N[C@]2(CO1)C[C@H](C(=O)N1CCC(COc3ccc(C(F)(F)F)cc3Cl)CC1)C2 [Example 19, (2s,4s)-2-((4-((2-chloro-4-(trifluoromethyl)phenoxy)methyl)piperidin-1-yl)carbonyl)-7-oxa-5-azaspiro[3.4]octan-6-one]	101%	
CC(Oc1ccc(Cl)cc1F)C1CCN(C(=O)[C@H]2C[C@]3(CCC(=O)N3)C2)CC1 (some centres unmarked) [Example 17, (2r,4s)-2-((4-(1-(4-chloro-2-fluorophenoxy)ethyl)piperidin-1-yl)carbonyl)-5-azaspiro[3.4]octan-6-one]	100%	
O=C1N[C@]2(CO1)C[C@H](C(=O)N1CC(OCc3ccc(C(F)(F)F)c(F)c3F)C1)C2 [Example 96, (2s,4s)-2-((3-((2,3-difluoro-4-(trifluoromethyl)benzyl)oxy)azetidin-1-yl)carbonyl)-7-oxa-5-azaspiro[3.4]octan-6-one]	100%	
Cc1ccc(C(F)(F)CC2CN(C(=O)[C@H]3C[C@]4(COC(=O)N4)C3)C2)cc1Cl [Example 109, (2s,4s)-2-((3-(2-(3-chloro-4-methylphenyl)-2,2-difluoroethyl)azetidin-1-yl)carbonyl)-7-oxa-5-azaspiro[3.4]octan-6-one]	99%	
CC(Oc1ccc(Cl)cc1F)C1CCN(C(=O)[C@H]2C[C@]3(COC(=O)N3)C2)CC1 (some centres unmarked) [Example 31, (2s,4s)-2-((4-(1-(4-chloro-2-fluorophenoxy)ethyl)piperidin-1-yl)carbonyl)-7-oxa-5-azaspiro[3.4]octan-6-one]		101%
Cc1cc(COC2CN(C(=O)[C@H]3C[C@]4(COC(=O)N4)C3)C2)c(F)cc1C(F)(F)F [Example 115, (2s,4s)-2-((3-((2-fluoro-5-methyl-4-(trifluoromethyl)benzyl)oxy)azetidin-1-yl)carbonyl)-7-oxa-5-azaspiro[3.4]octan-6-one]	100%	
O=C1N[C@]2(CO1)C[C@H](C(=O)N1CC(CC(F)(F)c3ccc(F)c(C(F)(F)F)c3)C1)C2 [Example 100, (2s,4s)-2-((3-(2,2-difluoro-2-(4-fluoro-3-(trifluoromethyl)phenyl)ethyl)azetidin-1-yl)carbonyl)-7-oxa-5-azaspiro[3.4]octan-6-one]	100%	
CC(Oc1ccc(F)cc1C(F)(F)F)C1CCN(C(=O)[C@H]2C[C@]3(COC(=O)N3)C2)CC1 (some centres unmarked) [Example 59, (2s,4s)-2-((4-(1-(4-fluoro-2-(trifluoromethyl)phenoxy)ethyl)piperidin-1-yl)carbonyl)-7-oxa-5-azaspiro[3.4]octan-6-one]	100%	
O=C1N[C@]2(CO1)C[C@H](C(=O)N1CCC(COc3ccc(F)cc3Cl)(C(F)(F)F)CC1)C2 [Example 48, (2s,4s)-2-((4-((2-chloro-4-fluorophenoxy)methyl)-4-(trifluoromethyl)piperidin-1-yl)carbonyl)-7-oxa-5-azaspiro[3.4]octan-6-one]	100%	
O=C1COC[C@]2(C[C@H](C(=O)N3CCC(COc4ccc(F)cc4Cl)CC3)C2)N1 [Example 25, (2s,4s)-2-((4-((2-chloro-4-fluorophenoxy)methyl)piperidin-1-yl)carbonyl)-8-oxa-5-azaspiro[3.5]nonan-6-one]	100%	
CC(Oc1ccc(C2CC2)cc1F)C1CCN(C(=O)[C@H]2C[C@]3(COC(=O)N3)C2)CC1 (some centres unmarked) [Example 47, (2s,4s)-2-((4-(1-(4-cychopropyl-2-fluorophenoxy)ethyl)piperidin-1-yl)carbonyl)-7-oxa-5-azaspiro[3.4]octan-6-one]	100%	
CC1(C2CCN(C(=O)[C@H]3C[C@]4(COC(=O)N4)C3)CC2)Cc2cc(F)ccc2O1 (some centres unmarked) [Example 4, (2s,4s)-2-((4-(5-fluoro-2-methyl-2,3-dihydro-1-benzofuran-2-yl)piperidin-1-yl)carbonyl)-7-oxa-5-azaspiro[3.4]octan-6-one]	100%	
Cc1cc(OCC2CN(C(=O)[C@H]3C[C@]4(COC(=O)N4)C3)C2)c(F)cc1C(F)(F)F [Example 72, (2s,4s)-2-((3-((2-fluoro-5-methyl-4-(trifluoromethyl)phenoxy)methyl)azetidin-1-yl)carbonyl)-7-oxa-5-azaspiro[3.4]octan-6-one]	101%	
CC(Oc1c(F)ccc(F)c1F)C1CCN(C(=O)[C@H]2C[C@]3(COC(=O)N3)C2)CC1 (some centres unmarked) [Example 56, (2s,4s)-2-((4-(1-(2,3,6-trifluorophenoxy)ethyl)piperidin-1-yl)carbonyl)-7-oxa-5-azaspiro[3.4]octan-6-one]		100%
O=C1N[C@]2(CO1)C[C@H](C(=O)N1CC(COc3ccc(C(F)(F)F)cc3F)C1)C2 [Example 9, (2s,4s)-2-((3-((2-fluoro-4-(trifluoromethyl)phenoxy)methyl)azetidin-1-yl)carbonyl)-7-oxa-5-azaspiro[3.4]octan-6-one]	100%	
